Values joined by “and” are separate entries in the source; they are usually repeats but may differ in a detail not shown here. Equal values may be shown once.
Columns and labels:
[1] = molecular target: butyrylcholinesterase (BuChE) (Homo sapiens, UniProt P06276); test: biochemical; conditions: for IC50: IC50 against butyrylcholinesterase (BuChE), human enzyme, dose response 0.01 to 100 µM; for inhibition at 0.01 µM / inhibition at 0.1 µM / inhibition at 1 µM / inhibition at 10 µM / inhibition at 100 µM: read-out: % inhibition BuChE
Procedure: (§1) Experimental procedures were followed as instructed by the kits’ manufacturer. The enzymes used in the assays were of human origin. IC50 values of the compounds were calculated from the obtained dose response curve, and selectivity index was calculated as a ratio between (AChE/BuChE) IC50.

[2] = molecular target: T1, acetylcholinesterase (AChE) (Homo sapiens, UniProt P22303); test: biochemical; conditions: for IC50: IC50 against acetylcholinesterase (AChE), human enzyme, dose response 0.01 to 100 µM; for inhibition at 0.01 µM / inhibition at 0.1 µM / inhibition at 1 µM / inhibition at 10 µM / inhibition at 100 µM: read-out: % inhibition AChE;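 on all read-outs here: Kit-based enzyme assay using enzymes of human origin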
Procedure: as §1

[3] = molecular target: T1, acetylcholinesterase (AChE); conditions: for Selectivity Index (AChE/BuChE): ratio between (AChE/BuChE) IC50; for IC50 against acetylcholinesterase (AChE): human enzyme, dose response 0.01 to 100 µM
Procedure: as §1

AChE = system: AChE; set-up: method as in PMID 23466605, PMID 10052979, PMID 29775949, PMID 31675671; conditions: Figure 1; ref [37],[30],[34],[38],[36]; read-out: AChE inhibition IC50; cited from earlier work

T1 sequence (P22303 32-614): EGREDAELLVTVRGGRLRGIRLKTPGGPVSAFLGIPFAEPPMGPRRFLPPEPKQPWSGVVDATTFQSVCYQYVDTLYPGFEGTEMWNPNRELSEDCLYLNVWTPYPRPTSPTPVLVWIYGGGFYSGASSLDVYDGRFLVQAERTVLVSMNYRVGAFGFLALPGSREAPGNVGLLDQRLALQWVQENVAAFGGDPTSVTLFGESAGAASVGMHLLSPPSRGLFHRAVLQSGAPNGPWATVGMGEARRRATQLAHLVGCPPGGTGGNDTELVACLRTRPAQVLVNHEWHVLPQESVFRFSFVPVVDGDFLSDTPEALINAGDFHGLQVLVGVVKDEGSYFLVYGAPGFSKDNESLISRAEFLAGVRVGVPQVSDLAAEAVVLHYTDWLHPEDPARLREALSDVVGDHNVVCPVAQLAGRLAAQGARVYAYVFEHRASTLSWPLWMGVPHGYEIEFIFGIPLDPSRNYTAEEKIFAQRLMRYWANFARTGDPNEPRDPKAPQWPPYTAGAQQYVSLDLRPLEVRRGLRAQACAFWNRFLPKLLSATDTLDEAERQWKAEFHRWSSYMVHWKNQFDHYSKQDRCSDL
butyrylcholinesterase (BuChE), sequence (P06276 29-602): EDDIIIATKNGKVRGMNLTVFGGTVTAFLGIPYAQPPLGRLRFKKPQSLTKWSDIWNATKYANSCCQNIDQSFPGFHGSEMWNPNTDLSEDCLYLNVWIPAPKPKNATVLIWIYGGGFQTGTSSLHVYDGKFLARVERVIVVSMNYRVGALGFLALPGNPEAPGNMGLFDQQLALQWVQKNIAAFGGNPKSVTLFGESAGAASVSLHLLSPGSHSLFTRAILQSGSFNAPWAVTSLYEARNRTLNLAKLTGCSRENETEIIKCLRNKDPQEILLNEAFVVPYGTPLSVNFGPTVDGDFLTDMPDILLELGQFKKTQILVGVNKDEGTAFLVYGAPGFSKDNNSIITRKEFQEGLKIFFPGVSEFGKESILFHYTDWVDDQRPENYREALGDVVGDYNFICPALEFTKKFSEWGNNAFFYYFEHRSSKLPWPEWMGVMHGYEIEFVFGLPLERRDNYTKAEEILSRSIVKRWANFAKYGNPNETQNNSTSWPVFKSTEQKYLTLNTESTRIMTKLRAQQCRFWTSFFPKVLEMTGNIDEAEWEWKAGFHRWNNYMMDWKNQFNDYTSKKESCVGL

Compound	IC50 [1]	inhibition at 0.01 µM [1]	inhibition at 0.1 µM [1]	inhibition at 1 µM [1]	inhibition at 10 µM [1]	inhibition at 100 µM [1]	IC50 [2]	inhibition at 0.01 µM [2]	inhibition at 0.1 µM [2]	inhibition at 1 µM [2]	inhibition at 10 µM [2]	inhibition at 100 µM [2]	Selectivity Index (AChE/BuChE) [3]	IC50 against acetylcholinesterase (AChE) [3]	IC50 (AChE)
CC(=O)OC[C@H]1O[C@@H](n2cc(CSc3ccc(-c4ccccn4)nn3)nn2)[C@H](OC(C)=O)[C@@H](OC(C)=O)[C@H]1OC(C)=O [Compound 4, (2R,3S,4S,5R,6R)-2-(Acetoxymethyl)-6-(4-(((6-(pyridin-2-yl)pyridazin-3-yl)thio)methyl)-1H-1,2,3-triazol-1-yl)tetrahydro-2H-pyran-3,4,5-triyl triacetate]	14.6 ± 0.48 µM	5.1%	11%	20%	41%	75%	11.9 ± 0.5 µM	11%	29%	47%	71%	87%	0.81		
CC(=O)OCC1OC(n2cc(CSc3ccc(-c4ccccn4)nn3)nn2)C(OC(C)=O)C(OC(C)=O)C1OC(C)=O [Compound 3, (2R,3R,4S,5R,6R)-2-(Acetoxymethyl)-6-(4-(((6-(pyridin-2-yl)pyridazin-3-yl)thio)methyl)-1H-1,2,3-triazol-1-yl)tetrahydro-2H-pyran-3,4,5-triyltriacetate]	0.297 µM and 0.29 µM	25%	39%	61%	79%	93%	8.71 µM and 8.7 µM	7.4%	23%	43%	72%	88%	29.32	moderate inhibition	
CC(=O)OC[C@H]1O[C@@H](n2cc(CSc3ccc(-c4ccccn4)nn3)nn2)[C@H](OC(C)=O)[C@@H]1OC(C)=O [Compound 6, (2R,3R,4R,5R)-2-(Acetoxymethyl)-5-(4-(((6-(pyridin-2-yl)pyridazin-3-yl)thio)methyl)-1H-1,2,3-triazol-1-yl)tetrahydrofuran-3,4-diyl diacetate]	32 ± 1.05 µM	4%	8.1%	19%	33%	69%	9.15 µM	9%	29%	55%	73%	88%	0.29	moderate inhibition	
OC[C@H]1O[C@@H](n2cc(CSc3ccc(-c4ccccn4)nn3)nn2)[C@H](O)[C@@H](O)[C@@H]1O [Compound 7, (2R,3S,4S,5R,6R)-2-(Hydroxymethyl)-6-(4-(((6-(pyridin-2-yl)pyridazin-3-yl)thio)methyl)-1H-1,2,3-triazol-1-yl)tetrahydro-2H-pyran-3,4,5-triol]	7.9 ± 0.26 µM	7.8%	13%	23%	48%	79%	3.14 ± 0.13 µM	14%	38%	62%	80%	92%	0.39	moderate inhibition	
OC[C@H]1O[C@@H](n2cc(CSc3ccc(-c4ccccn4)nn3)nn2)[C@H](O)[C@@H]1O [Compound 8, (2R,3S,4R,5R)-2-(Hydroxymethyl)-5-(4-(((6-(pyridin-2-yl)pyridazin-3-yl)thio)methyl)-1H-1,2,3-triazol-1-yl)tetrahydrofuran-3,4-diol]	5.35 ± 0.17 µM	5.9%	13%	22%	55%	82%	0.64 ± 0.02 µM	26%	43%	62%	88%	93%	0.12		
Cc1ccc(-c2ccc(=O)n(CCc3n[nH]c(=S)n3-c3ccc(OC(F)(F)F)cc3)n2)cc1 [VII]															0.049 µM
COc1ccc(-c2ccc(C(=O)NCCC3CCN(Cc4ccccc4)CC3)nn2)cc1 [V]															0.11 µM
C#CCSc1ccc(-c2ccccn2)nn1 [Compound 1, 3-(Prop-2-yn-1-ylthio)-6-(pyridin-2-yl)pyridazine]	4.37 ± 0.14 µM	8.7%	19%	27%	54%	83%	11.5 ± 0.48 µM	6.1%	23%	51%	74%	89%	2.64		
CC(=O)OC1COC(n2cc(CSc3ccc(-c4ccccn4)nn3)nn2)C(OC(C)=O)C1OC(C)=O (centres unmarked) [Compound 5]	0.189 µM and 0.18 µM	25%	48%	67%	78%	91%	0.266 µM and 0.26 µM	42%	61%	71%	83%	94%	1.41		
OCCOCCn1cc(CSc2ccc(-c3ccccn3)nn2)nn1 [Compound 9]	0.384 µM and 0.38 µM	22%	37%	56%	80%	93%	0.647 µM and 0.64 µM	35%	54%	70%	82%	92%	1.68		
CCN(C)C(=O)Oc1cccc([C@H](C)N(C)C)c1 [Rivastigmine, rivastigmine, reference compound]		0.7%	3.2%	7%	38%	80%									
CC(=O)OCC1O[C@@H](n2cc(CNc3c4c(nc5ccccc35)CCCC4)nn2)C(OC(C)=O)C(OC(C)=O)C1OC(C)=O (some centres unmarked) [VI]															4.89 µM
OCCn1cc(CSc2ccc(-c3ccccn3)nn2)nn1 [Compound 10, 2-(4-(((6-(Pyridin-2-yl)pyridazin-3-yl)thio)methyl)-1H-1,2,3-triazol-1-yl)ethan-1-ol]	6.06 ± 0.2 µM	5.6%	13%	31%	51%	78%	1.84 ± 0.07 µM	24%	40%	68%	83%	90%	0.30		
NCCn1cc(CSc2ccc(-c3ccccn3)nn2)nn1 [Compound 11, 2-(4-(((6-(Pyridin-2-yl)pyridazin-3-yl)thio)methyl)-1H-1,2,3-triazol-1-yl)ethan-1-amine]	42.9 ± 1.52 µM	-8.1%	7.5%	12%	33%	71%	14.6 ± 0.61 µM	7.5%	26%	53%	76%	90%	0.34		
COc1cc2c(cc1OC)C(=O)C(CC1CCN(Cc3ccccc3)CC1)C2 (centres unmarked) [Donepezil, donepezil, reference compound]		16%	32%	65%	84%	94%									

Source: publication PMC11510214, “Novel Dual Acetyl- and Butyrylcholinesterase Inhibitors Based on the Pyridyl–Pyridazine Moiety for the Potential Treatment of Alzheimer’s Disease” (Pharmaceuticals, 2024)
